Laboratory results published in patent US10689414B2 (Agios Pharmaceuticals, Inc., priority 2013, dated 2020).

system: U87MG cells; assay: Cellular assay, inhibition of 2-HG production in U87MG cells; format: cell-based; conditions: Homo sapiens, U-87 MG, 48 h
Outline: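 HT1080 or U87MG cells (U87MG kept with 500 ug/mL G418) seeded at 5000 cells/well and treated with compound at 0.2% final DMSO. Incubated 48 h at 37 °C. 2-HG inhibition determined by LC-MS. Viability read by CellTiter-Glo luminescence at 72 h post-dose.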

| IC50 | SMILES |
| --- | --- |
| < 100 nM | N#Cc1cccnc1N1C(=O)CC[C@H]1C(=O)N(c1cccc(F)c1)[C@H](C(=O)NC1CC(F)(F)C1)c1ccccc1Cl [Compound 69, (S)—N—((S)-1-(2-Chlorophenyl)-2-((3,3-difluorocyclobutyl)amino)-2-oxoethyl)-1-(3-cyanopyri-din-2-yl)-N-(3-fluorophenyl)-5-oxopyrrolidine-2-carboxamide] |
| < 100 nM | N#Cc1ccnc(N2C(=O)CC[C@H]2C(=O)N(c2cccc(OCCO)c2)[C@H](C(=O)NC2CC(F)(F)C2)c2ccccc2Cl)c1 [Compound 130, (S)—N—((S)-1-(2-Chlorophenyl)-2-((3,3-difluorocyclobutyl)amino)-2-oxoethyl)-1-(4-cyanopyridin-2-yl)-N-(3-(2-hydroxyethoxy)phenyl)-5-oxopyrrolidine-2-carboxamide] |
| < 100 nM | N#Cc1cc(F)cc(N(C(=O)[C@@H]2CCC(=O)N2c2cc(C#N)ccn2)[C@H](C(=O)NC2CCC(F)(F)CC2)c2ccccc2Cl)c1 [Compound 184, (S)—N—((S)-1-(2-Chlorophenyl)-2-(4,4-difluorocyclohexylamino)-2-oxoethyl)-N-(3-cyano-5-fluorophenyl)-1-(4-cyanopyridin-2-yl)-5-oxopyrrolidine-2-carboxamide] |
| < 100 nM | N#Cc1ccnc(N2C(=O)CC[C@H]2C(=O)N(c2cc(F)cc(C3CC3)c2)[C@H](C(=O)NC2CC(F)(F)C2)c2ccccc2Cl)c1 [Compound 204, (S)—N—((S)-1-(2-Chlorophenyl)-2-((3,3-difluorocyclobutyl)amino)-2-oxoethyl)-1-(4-cyanopyri-din-2-yl)-N-(3-cyclopropyl-5-fluorophenyl)-5-oxopyrrolidine-2-carboxamide] |
| < 100 nM | O=C(NC1CCC(F)(F)CC1)[C@H](c1ccccc1Cl)N(C(=O)[C@@H]1COC(=O)N1c1ncccn1)c1cccc(F)c1 [Compound 76, (S)—N—((S)-1-(2-Chlorophenyl)-2-((4,4-difluorocyclohexyl)amino)-2-oxoethyl)-N-(3-fluoro-phenyl)-2-oxo-3-(pyrimidin-2-yl)oxazolidine-4-carboxamide] |
| < 100 nM | N#Cc1ccnc(N2C(=O)CC[C@H]2C(=O)N(c2cncc(F)c2)[C@H](C(=O)NC2CC(F)(F)C2)c2ccccc2Cl)c1 [Compound 176, (S)—N—((S)-1-(2-Chlorophenyl)-2-(3,3-difluorocyclobutylamino)-2-oxoethyl)-1-(4-cyanopyridin-2-yl)-N-(5-fluoropyridin-3-yl)-5-oxopyrrolidine-2-carboxamide] |
| < 100 nM | O=C(NC1CC(F)(F)C1)[C@H](c1ccccc1Cl)N(C(=O)[C@@H]1CCC(=O)N1c1cscn1)c1cccc(F)c1 [Compound 43, (S)—N—((S)-1-(2-Chlorophenyl)-2-(3,3-difluorocyclobutylamino)-2-oxoethyl)-N-(3-fluorophenyl)-5-oxo-1-(thiazol-4-yl)pyrrolidine-2-carboxamide] |
| < 100 nM | N#Cc1ccnc(N2C(=O)OC[C@H]2C(=O)N(c2cncc(F)c2)[C@H](C(=O)NC2CCC(F)(F)CC2)c2ccccc2Cl)c1 [Compound 132, (S)—N—((S)-1-(2-Chlorophenyl)-2-((4,4-difluorocyclohexyl)amino)-2-oxoethyl)-3-(4-cyanopyri-din-2-yl)-N-(5-fluoropyridin-3-yl)-2-oxooxazolidine-4-carboxamide] |
| < 100 nM | O=C(NC1CCCCC1)[C@H](c1ccccc1Cl)N(C(=O)[C@@H]1CCC(=O)N1c1ncccn1)c1cccc(F)c1 [Compound 7] |
| 100 to 500 nM | N#Cc1ccc(N2C(=O)CC[C@H]2C(=O)N(c2cccc(F)c2)[C@H](C(=O)NC2CC(F)(F)C2)c2ccccc2Cl)nc1 [Compound 47] |
| < 100 nM | O=C(NC1CC(F)(F)C1)[C@H](c1ccccc1Cl)N(C(=O)[C@@H]1COC(=O)N1c1cscn1)c1cccc(F)c1 [Compound 72] |
| 100 to 500 nM | N#Cc1ccnc(N2C(=O)[C@H](O)C[C@H]2C(=O)N(c2cc(F)cc(F)c2)[C@@H](C(=O)NC2CC(F)(F)C2)c2ccccc2Cl)n1 [Compound 116, (2S,4R)—N—((R)-1-(2-Chlorophenyl)-2-((3,3-difluorocyclobutyl)amino)-2-oxoethyl)-1-(4-cyanopyrimidin-2-yl)-N-(3,5-difluorophenyl)-4-hydroxy-5-oxopyrrolidine-2-carboxamide] |
| < 100 nM | N#Cc1ccnc(N2C(=O)[C@@H](O)C[C@H]2C(=O)N(c2cccc(F)c2)[C@H](C(=O)NC2CCC(F)(F)CC2)c2ccccc2Cl)n1 [Compound 189, (2S,4S)—N—((S)-1-(2-Chlorophenyl)-2-((4,4-difluorocyclohexyl)amino)-2-oxoethyl)-1-(4-cyanopyrimidin-2-yl)-N-(3-fluorophenyl)-4-hydroxy-5-oxopyrrolidine-2-carboxamide] |
| < 100 nM | N#Cc1cc(F)cc(N(C(=O)[C@@H]2CCC(=O)N2c2cc(C#N)ccn2)[C@H](C(=O)NC2CC(F)(F)C2)c2ccccc2)c1 [Compound 211, (S)—N-(3-Cyano-5-fluorophenyl)-1-(4-cyanopyridin-2-yl)-N—((S)-2-(3,3-difluorocyclobutyl-amino)-2-oxo-1-phenylethyl)-5-oxopyrrolidine-2-carboxamide] |
| < 100 nM | N#Cc1ccnc(N2C(=O)CNC[C@H]2C(=O)N(c2cc(F)cc(F)c2)[C@H](C(=O)NC2CC(F)(F)C2)c2ccccc2Cl)c1 [Compound 100, (S)—N—((S)-1-(2-Chlorophenyl)-2-((3,3-difluorocyclobutyl)amino)-2-oxoethyl)-1-(4-cyanopyridin-2-yl)-N-(3,5-difluorophenyl)-6-oxopiperazine-2-carboxamide] |
| < 100 nM | N#Cc1ccnc(N2C(=O)[C@H](O)C[C@H]2C(=O)N(c2cc(F)cc(F)c2)[C@@H](C(=O)NC2CCC(F)(F)CC2)c2ccccc2Cl)c1 [Compound 124, (2S,4R)—N—((R)-1-(2-Chlorophenyl)-2-(4,4-difluorocyclohexylamino)-2-oxoethyl)-1-(4-cyanopyridin-2-yl)-N-(3,5-difluorophenyl)-4-hydroxy-5-oxopyrrolidine-2-carboxamide] |
| < 100 nM | N#Cc1ccnc(N2C(=O)CC[C@H]2C(=O)N(c2cncc(F)c2)[C@H](C(=O)NC2CC(F)(F)C2)c2ccccc2)c1 [Compound 147, (S)-1-(4-Cyanopyridin-2-yl)-N—((S)-2-((3,3-difluorocyclobutyl)amino)-2-oxo-1-phenylethyl)-N-(5-fluoropyridin-3-yl)-5-oxopyrrolidine-2-carboxamide] |
| < 100 nM | N#Cc1ccnc(N2C(=O)CC[C@H]2C(=O)N(c2cc(F)cc(F)c2)[C@H](C(=O)NC2CC(F)(F)C2)c2ccccc2)c1 [Compound 210, (S)-1-(4-Cyanopyridin-2-yl)-N—((S)-2-(3,3-difluorocyclobutylamino)-2-oxo-1-phenylethyl)-N-(3,5-difluorophenyl)-5-oxopyrrolidine-2-carboxamide] |
| < 100 nM | CC(C)(C)OC(=O)N1CC(=O)N(c2nccc(C#N)n2)[C@H](C(=O)N(c2cc(F)cc(F)c2)[C@H](C(=O)NC2CC(F)(F)C2)c2ccccc2Cl)C1 [Compound 98, (3S)-tert-butyl 3-((1-(2-chlorophenyl)-2-((3,3-difluorocyclobutyl)amino)-2-oxoethyl)(3,5-difluorophenyl)carbamoyl)-4-(4-cyanopyrimidin-2-yl)-5-oxopiperazine-1-carboxylate] |
| < 100 nM | O=C(NC1CC(F)(F)C1)[C@H](c1ccccc1Cl)N(C(=O)[C@@H]1CCC(=O)N1c1ccc(F)cn1)c1cccc(F)c1 [Compound 29] |
